Earlier results on one compound are cited in patent US5948422A, “Oral dosage-forms containing a β-lactam antibiotic” (Yamanouchi Europe B.V., priority 1995, dated 1999).

The conditions of the series: compared with free acid, other salts and ester.

Structures are written as SMILES. Where a name gives a salt, the structure may show the parent alone.

In the case of `CC1(C)S[C@@H]2[C@H](NC(=O)COc3ccccc3)C(=O)N2[C@H]1C(=O)O` [potassium salt, phenoxymethylpenicillin potassium], the “bioavailability on oral administration” value is listed as “best bioavailability”.
